The text below walks through data of a melting point compilation (Tetko et al.; mined from patent text by program, amines drawn as free bases though some values may be those of a salt).

SMILES strings stand for the structures.

The term melting point denotes the temperature of the solid-liquid transition.

The compound `CC1(C)Cc2nc3ccccc3n2C(=O)N1` returned a melting point of 205 to 210 °C.
As to `CCOC(=O)C1=C(C)NC(C)=C(C(=O)OCC)C1c1csc2ccc(Br)cc12`, the melting point lay within 68 to 70 °C.
Turning to `c1cn(CCCc2ccc(OCc3coc(-c4ccsc4)n3)cc2)cn1`, the melting point lay within 102 to 103 °C.
For `CN1C(=O)N(c2ccc([N+](=O)[O-])c(C(F)(F)F)c2)C(=O)C1(C)C`, the melting point worked out at 116 °C.
Compound `C=CCc1c(O)ccc2c(C)cc(=O)oc12` came in with a melting point of 192 to 195 °C.
Compound `Cc1cc(C=O)cc(Oc2[nH]c(=O)[nH]c(=O)c2C(C)C)c1` returned a melting point of 241 to 242 °C.
`CCCCOC(=O)NS(=O)(=O)CCc1cc(OCCCC)nn1Cc1ccc(Cl)cc1Cl` displayed a melting point of 108 to 111 °C.
Turning to `O=C(Cc1ccsc1)Nc1ncc(Cl)cc1Cl`, the melting point is 159 to 160 °C.
In the case of `O=C(O)c1ccc2c(c1)CCc1ccc(O)cc1C2=O`, the melting point lay within 256 to 257 °C.
In turn, `Fc1cc2c(Nc3ccc(Cl)c(Cl)c3)ncnc2cn1` came in with a melting point of 262 to 264 °C.
Compound `OC1CCCC(n2c(NC3CC3)nc3cc(Cl)c(Cl)cc32)C1O` (centres undefined) yielded a melting point greater than 25 °C.
Take `CCOC(=O)c1cnc2sc(C)cc2c1O`: the melting point was 118 to 120 °C.
`CCOc1cc(OC)cc(OC(=O)CC)c1C(=O)C=Cc1ccc(OC)cc1` gave a melting point of 77.5 °C.
Take `CC(C)(C)NC(=O)Nc1nc2nc(NC3CCOCC3)ncc2cc1Oc1ccc(F)cc1F`: the melting point was in the range of 195 to 201 °C.
`CC(C)NC(=O)c1cc2nc(C3CC3)n(C)c2c(Cl)c1NC(=O)c1cc(C(F)(F)F)nn1-c1ncccc1Cl` had a melting point of 242 to 244 °C.
On to `Cc1nc(C(=O)NCCN(C)C)c2n1-c1ccc(Cl)cc1C(c1ccccc1F)=NC2`, for which the melting point is 209 to 211 °C.
`OCc1cccc(-c2nn(Cc3ccccc3)c3ccccc23)c1` gave a melting point of 98 to 99 °C.
The compound `O=S1(=O)N=C(NCc2ccccc2)Nc2cc(Cl)sc21` displayed a melting point of 223 to 226 °C.
Consider `CC(Oc1ccc2nc(NC(=O)NCCN3CCOCC3)sc2c1)c1c(F)ccc(Cl)c1Cl` (centres undefined), for which the melting point amounted to 200 °C.
In turn, `O=C(NN1CCCN(C(=O)OCc2ccccc2)CC1)c1ccc(F)cc1` gave a melting point of 116 to 118 °C.
`CCOC(=O)C(CO)c1ccc(OCC)cc1` (centres undefined) displayed a melting point of 35 to 36 °C.
`Cc1cccc(NC(=O)c2ccccc2SSc2ccccc2C(=O)Nc2cccc(C)c2)c1` had a melting point of 193 to 195 °C.
In turn, `CCCCc1cnc(C2=NC(C)(C(C)C)C(=O)N2)c(C(=O)O)c1` (centres undefined) gave a melting point of 152 to 154 °C.
To `CC(C)(C)SC[C@H](NC(=O)C(CS)Cc1ccccc1)C(=O)O` (some centres undefined) belongs 68 to 75 °C; to `CCOC(=O)C(C(=O)OCC)c1ccc(Br)cc1[N+](=O)[O-]`, 54 to 55 °C; to `Fc1cc(F)nc(NCc2ccccc2)n1`, 70 to 73 °C.
`COC(=O)c1cc(-c2ccc(F)c(C)c2)nn(CC=Cc2ccc(Cl)cc2)c1=O` came in with a melting point of 138 to 139 °C.
`COC(=O)c1ccc(Cn2c(C=Cc3ccc(OC)c(OC)c3)nc3c(OC)c(C)c(C)c(OC)c32)cc1` had a melting point of 111 to 114 °C.
To `Cc1ccc(CSc2nc3cc4c(cc3[nH]2)C(C)(C)CCC4(C)C)nc1` belongs 187 to 188 °C; to `NS(=O)(=O)c1ccc(-c2nc(-c3ncn4c(C(F)(F)F)cc(-c5ccc(C(F)(F)F)cc5)nc34)no2)cc1`, 303 °C; to `CCCn1c(=O)c2[nH]c(C34CC5CC(CC(O)(C5)C3)C4)nc2n(CCC)c1=O`, 213 to 214 °C.
As for `COc1ccc(C(=O)Nc2ccccc2CC(C)C2CCCCN2C)cc1` (centres undefined), the figure is 126 to 136 °C; as for `COc1ccc(-c2nnc3c4ccccc4c(Nc4ccc(C#N)cc4)nn23)cc1`, 314 °C; as for `N#Cc1cccc2c1NC(=O)C2c1ncnc2nn(C3CCCC3)cc12` (centres undefined), greater than 380 °C.
